{"source": "paper PMC12909347", "about": "“Disconnect between in vitro and in vivo efficacy of the MPS1 inhibitor NTRC 0066-0 against glioblastoma” (Cellular Oncology, 2026)", "key": {"[1]": {"tested_on": "LN-751", "assay": "Cell survival assay (crystal violet), continuous exposure", "format": "cell-based, human", "conditions": "LN-751, continuous exposure, Fig. 1A", "description": "(§1) Wells were pre-coated with poly-ornithine (15 µg/ml for 3 h at room temperature) and subsequently with laminin (7.5 µg/ml for 1 h at 37 °C) prior to seeding GSCs to make them adherent without inducing differentiation. […] Cells were plated in 24-wells plates at low cell densities (2,000–10,000 cells/well) and exposed to different concentrations of NTRC0066-0 24 h later. NTRC0066-0 was dissolved in DMSO (Sigma-Aldrich) for in vitro experiments and final DMSO concentrations never exceeded 0.1%. When untreated wells were confluent (approximately 6–10 days after seeding, dependent on the cell line), cells were fixed and stained using a solution containing 0.5% crystal violet (w/v; Sigma-Aldrich) and 6% glutaraldehyde (v/v; Honeywell, Morris Plains, NJ). Plates were imaged using a Chemi-Doc XRS+ (Bio-rad, Hercules, CA) and analyzed using the Colony Area plugin of ImageJ [24]. IC50 curves were fitted and plotted using the ‘log(inhibitor) vs. normalized response – Variable slope’ fitting procedure of GraphPad Prism v10.3 (GraphPad Software, La Jolla, CA). Monotherapy curves were corrected for untreated controls."}, "[2]": {"tested_on": "E98", "assay": "Cell survival assay (crystal violet), continuous exposure", "format": "cell-based, human", "conditions": "Fig. 1A", "description": "as §1"}, "[3]": {"tested_on": "T98G", "assay": "Cell survival assay (crystal violet), continuous exposure", "format": "cell-based, human", "conditions": "Fig. 1A", "description": "as §1"}, "[4]": {"tested_on": "U87", "assay": "Cell survival assay (crystal violet), continuous exposure", "format": "cell-based, human", "conditions": "Fig. 1A", "description": "as §1"}, "[5]": {"tested_on": "orthotopic E98 GBM tumors", "assay": "Orthotopic E98 GBM xenograft efficacy in Abcb1a/b;Abcg2-/- mice", "format": "in vivo", "description": "Orthotopic GBM tumors were induced in Abcb1a/b; Abcg2^−/− mice by stereotactic injection of E98 cells expressing firefly luciferase (200,000 cells in 2 µL HBSS (Life Technologies) at an injection speed of 1 µL/min) at 2 mm lateral, 1 mm anterior and 3 mm ventral to the bregma. Tumor growth was monitored using bioluminescence imaging by injecting D-luciferin (150 mg/kg i.p.; Promega, Madison, WI) and subsequently imaging mice on an IVIS Spectrum Imaging System (PerkinElmer, Waltham, MA). Survival was monitored daily and the humane endpoint was defined as body weight loss exceeding 20%. Time-to-recurrence was defined as the number of days elapsed until the tumor regained its pre-treatment size. Tumors were treated with CT-guided radiotherapy (2–3.5 Gy per fraction) using an X-RAD 225Cx system (Precision X-Ray, North Branford, CT), temozolomide (10 mg/kg p.o. freshly prepared from powder in an aqueous solution containing 10% v/v ethanol), NTRC0066-0 (20, 10 or 5 mg/kg p.o. in an aqueous solution containing 10% v/v DMSO and 10% v/v Cremophor EL (Life Technologies)) or different combinations thereof, as described per experiment in the Figure legends."}, "[6]": {"assay": "Tolerability of oral dosing schedules in Abcb1a/b;Abcg2-/- mice", "format": "in vivo"}, "[7]": {"tested_on": "orthotopic E98 GBM tumors", "assay": "Quantification of mitotic errors in E98 tumors", "format": "in vivo, mice", "conditions": "end-stage E98 tumors, 5/10 mg/kg b.i.d.x7d", "description": "Tumor-bearing mouse brains were formalin-fixed, paraffin-embedded and coronal Sect. (10 μm) were sliced using an RM2255 microtome (Leica, Wetzlar, Germany). Sections were subsequently deparaffinized using xylene, incubated in citrate buffer for antigen retrieval, blocked with 4% (w/v) BSA in TBS-T, incubated with rabbit-α-pH3^Ser10 (1:250 for 3 h at room temperature; Merck Millipore, Burlington, MA), incubated with goat-α-rabbit-AF568 (1:250 for 45 min at room temperature; Thermo Fisher Scientific, Waltham, MA) and mounted with Vectashield hardset antifade mounting medium with DAPI (Vector Laboratories, Burlingame, CA). Mitotic errors were imaged and scored using a Deltavision ultra high resolution microscope (Applied Precision Inc., Issaquah, WA)."}, "[8]": {"conditions": "E98 tumors, 5/10 mg/kg b.i.d.x7d monotherapy"}, "[9]": {"conditions": "adjuvant: 5/10 mg/kg b.i.d.x7d after RT + TMZ vs RT + TMZ alone"}, "[10]": {"conditions": "recurrent E98 tumors after TMZ + RT, 20 mg/kg q.2d.x11d second-line"}, "[11]": {"conditions": "therapy-naive E98 tumors, 20 mg/kg q.2d.x11d monotherapy"}}}
{"smiles": "CCc1cccc(CC)c1NC(=O)c1ccn2c1CCc1cnc(Nc3ccc(N4CCN(C)CC4)cc3OC)nc1-2", "note": "[NTRC 0066-0]", "values": [{"measurement": "IC50", "setting": "[1]", "value": 37, "unit": "nM"}, {"measurement": "IC50", "setting": "[2]", "value": 23, "unit": "nM"}, {"measurement": "IC50", "setting": "[3]", "value": 18, "unit": "nM"}, {"measurement": "IC50", "setting": "[4]", "value": 31, "unit": "nM"}, {"measurement": "Survival", "setting": "[5]; [8]", "value": "did not observe any delay in tumor growth (Fig. 4H) or survival"}, {"measurement": "Tumor growth", "setting": "[5]; [8]", "value": "did not observe any delay in tumor growth"}, {"measurement": "Survival", "setting": "[5]; [9]", "value": "not affected"}, {"measurement": "Time-to-recurrence", "setting": "[5]; [9]", "value": "not different between treatment groups"}, {"measurement": "Tumor growth", "setting": "[5]; adjuvant: 5/10 mg/kg b.i.d.x7d from day 3 after RT + TMZ (2 Gy + 10 mg/kg q.d.x2d) vs RT + TMZ alone", "value": "could not observe any effects on tumor growth"}, {"measurement": "Animals with tumor growth delay", "setting": "[5]; [10]", "value": "2 out of 7"}, {"measurement": "Long-term survivors", "setting": "[5]; [10]", "value": "one long-term survivor"}, {"measurement": "Survival", "setting": "[5]; [11]", "value": "did not result in reduced tumor growth (Fig. 4A) or improved survival"}, {"measurement": "Tumor growth", "setting": "[5]; [11]", "value": "did not result in reduced tumor growth"}, {"measurement": "Tolerability of schedule", "setting": "[6]; 5 mg/kg p.o. morning + 10 mg/kg p.o. about 8 h later, 7 consecutive days", "value": "could safely administer"}, {"measurement": "Tolerability of schedule", "setting": "[6]; 20 mg/kg p.o. every other day for 11 days (q.2d.x11d)", "value": "could safely be given"}, {"measurement": "Number of mitotic errors in tumors", "setting": "[7]", "value": "did not increase the number of mitotic errors"}]}
